Entries after “also recorded” stand apart in the source; their conditions may differ. Primed or numbered codes have the meaning given here. Where no end group is shown, it is not given here. [ ]: non-standard residue; d: D form. FITC′ = fluorescein isothiocyanate label; Ahx = NCCCCCC(=O)O
Legend:
[1] = system: cleavage of Substrate M by rhBACE (recombinant human β-secretase); experiment: Fluorometric (FRET) assay for cleavage of F-Substrate M by β-secretase; assay type: biochemical; conditions: for inhibitory activity of deletion peptides on cleavage of Substrate M: 10 inhibitor/substrate ratio, Substrate M 50 μM; for inhibitory activity group on Substrate M cleavage: tested at various concentrations (FIG. 8); for inhibition of cleavage of Substrate M by β-secretase: in vitro
Text: This assay system utilizes fluorescence resonance energy transfer (FRET) technology. Substrate M was synthesized with two fluorophores, a fluorescent donor and a proprietary quenching acceptor (purchased from a commercial source, R&D Systems). […] Upon cleavage of substrate by β-secretase, the fluorophore is separated from the quenching group, restoring the full fluorescence yield of donor.
Substrate labeled with fluorophores will be called F-Substrate M (R&D Systems). Recombinant human β-secretase will be called rhBACE (recombinant human β-site APP cleavage enzyme) (purchased from R&D systems).
[…] Cleavage by rhBACE was detected by reading emitted fluorescence level.
In this assay system, fluorescence resonance energy transfer (FRET) technology was utilized. […] After pre-incubation, substrate and HC peptide mixture in assay buffer was transferred to FluoroNunc™ 96 well white plate (Nunc, Roskilde, Denmark), and rhBACE1 (70 nM) was added. Time-dependent emission of fluorescence (excitation at 320 nm, emission at 405 nm) was monitored in a Molecular Devices SpectraMax Gemini EM fluorescence reader (CA, USA) for 1 h at 37° C. All assays were carried out in duplicate.

[2] = system: cleavage of APP by BACE1 (CTFβ) in HEK 293-APP cells; experiment: Level of CTFβ in treated cells (immunoblot, 6E10); assay type: cell-based, human; conditions: HEK293-APP cells; for accumulation of cleavage product CTFβ: 9 h
Procedure: When the confluency of the cells reached 90%, the cells were washed with PBS once, and HC peptide in serum free DMEM was added to the cells. […] The lysed cells were centrifuged at 12000×g for 10 min at 4° C. The protein in the supernatant was determined by bicinchoninic acid assay (Pierce, IL, USA) [Smith, P. K., Krohn, R. I., Hermanson, G. T., Mallia, A. K., Gartner, F. H., Provenzano, M. D., Fujimoto, E. K., Goeke, N. M., Olson, B. J., and Klenk, D. C. […] After electrophoresis, the proteins in the gel were electrophoretically transferred onto a polyvinylidene difluoride (PVDF) membrane at 100 mA for 80 min. The blotted membrane was fixed with 0.2% glutaraldehyde in PBS for 45 min at RT and treated for 5 min in boiling PBS. CTFβ (the C-terminal fragment of APP generated by BACE1) was detected by treatment of the membrane with 0.5 μg/ml of anti-Aβ N terminal 6E10 antibody (Signetlabs, Inc., MA, USA) followed by incubation with 0.2 μg/ml of anti-mouse antibody coupled with HRP (Amersham Biosciences Ltd. Uppsala, Sweden). The developed film was scanned and the density of CTFβ band was determined by Scion Image Program (Scion Corporation, MD, USA).

[3] = system: Aβ production in HEK 293-APP cells; experiment: Measurement of Aβ level in culture media (Aβ1-40 immunoassay); assay type: cell-based, human; conditions: HEK293-APP cells
Procedure: Human embryonic kidney (HEK) 293 cells stably transformed with the gene for APP695 (HEK 293-APP) were used for studies on the inhibitory activity of HC peptides. HEK 293-APP cells were generously supplied by Dr. T W Kim (Columbia University, NY, USA). HEK 293-APP cells were cultured in Dulbecco's Modified Eagle's Medium (DMEM) (Invitrogen, CA, USA) with 10% fetal bovine serum (HyClone, UT, USA) and 300 μg/ml of geneticin (Invitrogen, CA, USA) in a humidified atmosphere of 5% CO2, 95% air at 37° C. Cells were subcultured after trypsinization, and the medium was changed every 2-3 days.
The culture media from the peptide-treated cells (see above) was harvested and centrifuged at 3500×g for 10 min. Amount of Aβ in the supernatant was determined with human Aβ1-40 immunoassay kits (Signal Select™, BioSource, CA, USA) according to the instruction provided by the company.

[4] = target: T1, Substrate W (SEVKMDAEFR, β-secretase cleavage site of wild type APP) (Homo sapiens, UniProt P05067); experiment: Binding of biotin-labeled Substrate W to immobilized complementary (HC) peptides; conditions: biotin-labeled Sub W, peptide immobilized on plate
T1 construct: purchased Peptron, Inc; host or cells: chemical synthesis
Procedure: (§1) Complementary peptides (0.2, 2, 20, and 200 μM) were dissolved in phosphate buffered saline (PBS) (pH 7.4) and fixed to microtiter wells for 5 hr at 37° C. The wells were blocked with blocking buffer (3% BSA/PBS) for 1 hr at 37° C. Either N-terminally biotinylated Substrate W or M (20 μM) in blocking buffer was added and incubated for overnight at 4° C. Streptavidin-horseradish peroxidase in blocking buffer was added to detect resulting bound substrates. The plate was incubated for 2 hr at room temperature (RT), followed by addition of 3, 3′, 5,5′-tetramethyl-benzidine (TMB) as substrate for horseradish peroxidase for color reaction.
In particular, for Substrate W, complementary peptides (200 μM) dissolved in phosphate buffered saline (PBS) (pH 7.4) were chemically coupled to Reacti-Bind Maleic Anhydride Activated Polystyrene wells (Pierce Biotechnology, Inc.) for overnight at room temperature (RT). Remaining active sites of the plate were inactivated by adding ethanolamine (1 M) for 1 hr at RT. The wells were blocked with blocking buffer (3% BSA/PBS) for 1 hr at RT. N-terminally biotinylated Substrate W (20 μM) in blocking buffer was added and incubated for 3 hr at RT. Streptavidin-horseradish peroxidase in blocking buffer was added to detect resulting bound substrates. The plate was incubated for 2 hr at room temperature (RT), followed by addition of 3,3′,5,5′-tetramethyl-benzidine (TMB) as substrate for horseradish peroxidase for color reaction.
(§2) Reacti-Bind™ maleic anhydride-activated polystyrene plate (Pierce, IL, USA) was coated with 50 μl of HC peptide (200 μM in distilled water) by chemical coupling for 3 h at room temperature (RT) and washed three times with phosphate buffered saline (PBS) containing 0.05% tween 20 (PBST). The plate was blocked with blocking buffer (0.5% gelatin in PBS) for 1 h at RT. After discarding blocking buffer, biotinylated BACE1 substrates (200 μM) in blocking buffer was applied on the plate and incubated for 2.5 h at RT. Each well was washed three times with PBST. The bound biotinylated BACE1 substrates were detected by incubation with streptavidin-horseradish peroxidase (Str-HRP, 125 mU/ml in blocking buffer) for 2 h at RT. Color reaction was carried out with 50 μl of 3,3′,5,5′-Tetramethylbenzidine Liquid Substrate (Sigma-Aldrich, MO, USA). After stopping the reaction by addition of an equal volume of 1 N HCl, absorbance at 450 nm was read in an automated ELISA reader (EL 312e, Bio-Tek Instruments, VT, USA). All assays were carried out in duplicate.

[5] = system: Substrate M (SEVNLDAEFR, β-secretase cleavage site of APPsw); experiment: Binding of biotin-labeled Substrate M to immobilized complementary (HC) peptides; conditions: biotin-labeled Sub M, peptide immobilized on plate
Procedure: as §1, §2

[6] = system: APP processing in HEK293-APP cells; experiment: Cell based assay of APP processing (βCTF, Western blot) in HEK293-APP cells; parameters: species or system human
Procedure: In the neuronal cells of the brain, APP is processed by α-secretase or β-secretase. To investigate the effects of the inhibitors on the cell, a cell based assay system was developed as described in FIG. 10. C-terminal fragment of APP remaining on the cell membrane was detected by Western blot. The resulting C-terminal fragments, αCTF or βCTF are further processed by γ-secretase. However, if the cells are treated with the γ-secretase inhibitor, this processing is blocked. As a result, αCTF or βCTF accumulate in the cell. If β-secretase inhibitor or APP inhibitor is added, this processing is blocked and βCTF disappears.
To test APP inhibitor activities in cells, three complementary peptides, c-Sub M, c-Sub MΔC6, and c-Sub MΔN1C1, which show high absorbance in binding test, were added to whole cell extracts of HEK293-APP cells (Lanes 2, 3, and 4 in FIG. 11). In addition, γ-secretase inhibitor and cholesterol were added to the cells to increase βCTF level. Commercially available peptide-based β-secretase inhibitor was included as control (Lane 6, FIG. 11). To detect the N-terminal fragment of β-amyloid which is a product of APP processing, 6E10 antibody was employed. […] Recently, it has been reported that the commercially available peptide-based inhibitor had to be linked to an oligoarginine transporter peptide to have inhibitory activity against cells. Therefore, mimetic approach is adopted to produce cell permeable analogs. (Chang et al. J. Neurochemistry 2004; 89:1409-1416).
After confirming the ability of the oligo-arginine coupled APP inhibitors to enter the cells, the inhibitors were applied to HEK293-APP cells overexpressing APP to test their inhibitory activities on APP processing. […] This inhibitor started to show significant inhibitory activity beginning from 0.1 μM (lower panel).

CIQI (CIQI-NH2) [C-Sub MΔN3C3]
inhibitory activity of deletion peptides on cleavage of Substrate M [1]: considerable inhibitory activity | inhibitory activity group on Substrate M cleavage [1]: medium activity

CIQIHF (CIQIHF-NH2) [c-Sub M ΔN3C1]
inhibitory activity of deletion peptides on cleavage of Substrate M [1]: considerable inhibitory activity | inhibitory activity for cleavage of f-Sub M by rhBACE1 ([1]; HC peptide 0.5 mM, f-Sub M 10 μM (Table 2)): without sacrificing the inhibitory activity too much | inhibition of cleavage of Substrate M by β-secretase ([1]; rhBACE1): maintains much of the original activity of c-Sub M; also recorded: less active than longer HC peptide | inhibitory activity relative to c-Sub M ΔN1C1 ([1]; substrate concentration 10 μM): about one tenth | inhibitory activity group on Substrate M cleavage [1]: less activity

NH2-(CH2)5-CO—Cys-Ile-Gln-Ile-His-Phe-NH2 ([Ahx]CIQIHF-NH2; N-terminus assumed; SMILES CC[C@H](C)[C@H](NC(=O)[C@H](CCC(N)=O)NC(=O)[C@@H](NC(=O)[C@H](CS)NC(=O)CCCCCN)[C@@H](C)CC)C(=O)N[C@@H](Cc1c[nH]cn1)C(=O)N[C@@H](Cc1ccccc1)C(N)=O) [AHX-c-Sub M ΔN3C1]
in vitro inhibitory activity relative to non-modified c-Sub M ΔN3C1 ([1]; f-Sub M, rhBACE1): half | forms of CTFβ whose accumulation is inhibited [2]: both forms | accumulation of cleavage product CTFβ [2]: inhibited accumulation | reduction of amount of Aβ released ([3]; 6.25 μM, 9 h): about 70% | inhibition of Aβ production / APP processing in the cells [3]: reduced in a concentration dependent manner

RLHFYLRLKA [Sub W-c]
inhibition of cleavage of Substrate M by β-secretase ([1]; rhBACE1): do not inhibit cleavage | binding to Substrate W [4]: do not bind

RLHLDLRLKA [Sub M-c]
binding to Substrate M [5]: do not bind and not | inhibitory activity for cleavage of f-Sub M by rhBACE1 ([1]; HC peptide 1 mM, f-Sub M 10 μM): not | inhibition of cleavage of Substrate M by β-secretase ([1]; rhBACE1): do not inhibit cleavage

SEFC [c-Sub MΔC6]
inhibitory activity on APP processing ([6]; βCTF): none of the inhibitors tested showed inhibitory activity

SEFCI (SEFCI-NH2) [c-SubM ΔC5]
inhibitory activity group on Substrate M cleavage [1]: medium activity

SEFCIHLHFR (SEFCIHLHFR-NH2) [c-Sub W]
binding to Substrate M [5]: weak but significant binding | inhibitory activity for cleavage of f-Sub M by rhBACE1 ([1]; HC peptide 1 mM, f-Sub M 10 μM): higher inhibitory activity | inhibition of cleavage of Substrate M by β-secretase ([1]; rhBACE1): inhibit cleavage | inhibitory activity group on Substrate M cleavage [1]: medium activity | binding to Substrate W [4]: bind

SEFCIQI (SEFCIQI-NH2) [c-SubM ΔC3]
inhibitory activity group on Substrate M cleavage [1]: most active

SEFCIQIHF [c-Sub M ΔC1]
binding to Substrate M [5]: relatively high binding activity

c-Sub M-R9: c-Sub M coupled with oligo-arginine (9 Arginines), labeled with FITC using a linker AHX ({FITC′-Ahx}-SEFCIQIHFRRRRRRRRRR)
inhibition of cleavage of Substrate M by β-secretase ([1]; rhBACE1): no inhibitory activity | inhibitory activity on APP processing ([6]; 10 μM): no inhibitory activity | inhibitory activity on APP processing ([6]; low concentration): some inhibitory activity

c-Sub MΔN1C1-R9: c-Sub MΔN1C1 coupled with oligo-arginine (9 Arginines), labeled with FITC using a linker AHX ({FITC′-Ahx}-EFCIQIHFRRRRRRRRR)
inhibition of cleavage of Substrate M by β-secretase ([1]; rhBACE1): less inhibitory activity | inhibitory activity on APP processing ([6]; βCTF): inhibitory activity in a concentration dependent manner

β-secretase inhibitor IV [reference compound]
forms of CTFβ whose accumulation is inhibited [2]: only the nonphosphorylated form | accumulation of cleavage product CTFβ [2]: inhibited accumulation | inhibition of production of Aβ ([3]; 2 μM): about 90%
